In US8183239B2, “Substituted piperazines and piperidines as modulators of the neuropeptide Y2 receptor” (Janssen Pharmaceutica NV, priority 2005, dated 2012):

Target: T1, Y2 receptors (Homo sapiens, UniProt P49146)
T1 construct: endogenous in cells; host or cells: KAN-Ts cells (membranes)
T1 sequence (P49146 1-381): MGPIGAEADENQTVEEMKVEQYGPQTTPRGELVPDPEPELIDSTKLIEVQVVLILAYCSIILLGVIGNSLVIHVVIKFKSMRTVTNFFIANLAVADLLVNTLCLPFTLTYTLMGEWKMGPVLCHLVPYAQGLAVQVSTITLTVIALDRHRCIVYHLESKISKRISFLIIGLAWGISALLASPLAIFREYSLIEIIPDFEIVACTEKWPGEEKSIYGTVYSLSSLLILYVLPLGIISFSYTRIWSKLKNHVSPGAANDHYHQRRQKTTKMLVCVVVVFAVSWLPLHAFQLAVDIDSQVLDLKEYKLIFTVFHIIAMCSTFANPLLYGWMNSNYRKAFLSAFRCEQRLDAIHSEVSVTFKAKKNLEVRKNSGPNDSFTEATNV
Assay: Radioligand binding assay ([125I]PYY, KAN-Ts cell membranes)
Conditions: Table 1, [125I]PYY 80 pM, average of results, read-out: IC50
Summary of the method: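 IC50 values are means of three to eight experiments run in duplicate, fitted sigmoidally against specific binding (defined by […]). Competition used 80 pM [^125I]PYY for 1 h at room temperature on KAN-Ts membranes carrying native Y2, with filtration and scintillation counting.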

IC50 [µM] | Structure (SMILES)
0.1 | CCCCC(CC)C(=O)Nc1ccc(N2CCN(C(C(=O)OC)c3ccccc3)CC2)c(F)c1 (stereo not shown) [Example 79, {4-[4-(2-Ethyl-hexanoylamino)-2-fluoro-phenyl]-piperazin-1-yl}-phenyl-acetic acid methyl ester]
0.4 | CCCCC(CC)C(=O)Nc1ccc(N2CCN(C(C(=O)OC)c3ccccc3)CC2)cc1 (stereo not shown) [Example 82, {4-[4-(2-Ethyl-hexanoylamino)-phenyl]-piperazin-1-yl}-phenyl-acetic acid methyl ester]
3.6 | CCCCCC(=O)Nc1ccc(N2CCN(C(C(=O)OC)c3ccccc3)CC2)cc1 (stereo not shown) [Example 83, [4-(4-Hexanoylamino-phenyl)-piperazin-1-yl]-phenyl-acetic acid methyl ester]
3.35 | COC(=O)C(c1ccccc1)N1CCN(c2ccc(NC(=O)CCc3ccccc3)cc2)CC1 (stereo not shown) [Example 84, Phenyl-{4-[4-(3-phenyl-propionylamino)-phenyl]-piperazin-1-yl}-acetic acid methyl ester]
1.3 | CCCC(C)C(=O)Nc1ccc(N2CCN(C(C(=O)OC)c3ccccc3)CC2)cc1 (stereo not shown) [Example 85, {4-[4-(2-Methyl-pentanoylamino)-phenyl]-piperazin-1-yl}-phenyl-acetic acid methyl ester]
4.8 | CCCCC(=O)Nc1ccc(N2CCN(C(C(=O)OC)c3ccccc3)CC2)cc1 (stereo not shown) [Example 86, [4-(4-Pentanoylamino-phenyl)-piperazin-1-yl]-phenyl-acetic acid methyl ester]
1.7 | COC(=O)C(c1ccccc1)N1CCN(c2ccc(NC(=O)CCC(C)C)cc2)CC1 (stereo not shown) [Example 87, {4-[4-(4-Methyl-pentanoylamino)-phenyl]-piperazin-1-yl}-phenyl-acetic acid methyl ester]
1 | CCNC(=O)C(c1ccccc1)N1CCN(c2ccc(NC(=O)CCC(C)C)cc2F)CC1 (stereo not shown) [Example 88, 4-Methyl-pentanoic acid {4-[4-(ethylcarbamoyl-phenyl-methyl)-piperazin-1-yl]-3-fluoro-phenyl}-amide]
1.03 | CCCCC(CC)C(=O)Nc1ccc(N2CCN(C(C(=O)NCC)c3ccccc3)CC2)c(F)c1 (stereo not shown) [Example 89, 2-Ethyl-hexanoic acid {4-[4-(ethylcarbamoyl-phenyl-methyl)-piperazin-1-yl]-3-fluoro-phenyl}-amide]
9.7 | CCNC(=O)C(c1ccccc1)N1CCN(c2ccc(NC(=O)CCc3ccccc3)cc2F)CC1 (stereo not shown) [Example 90, N-{4-[4-(Ethylcarbamoyl-phenyl-methyl)-piperazin-1-yl]-3-fluoro-phenyl}-3-phenyl-propionamide]
10 | CCNC(=O)C(c1ccccc1)N1CCN(c2ccc(NC(=O)CCN(CC)CC)cc2F)CC1 (stereo not shown) [Example 91, 3-Diethylamino-N-{4-[4-(ethylcarbamoyl-phenyl-methyl)-piperazin-1-yl]-3-fluoro-phenyl}-propionamide]
5.1 | CCNC(=O)C(c1ccccc1)N1CCN(c2ccc(NC(=O)Cc3ccncc3)cc2F)CC1 (stereo not shown) [Example 92, N-Ethyl-2-{4-[2-fluoro-4-(2-pyridin-4-yl-acetylamino)-phenyl]-piperazin-1-yl}-2-phenyl-acetamide]
5 | CCNC(=O)C(c1ccccc1)N1CCN(c2ccc(NC(=O)C(CC3CCCN3)C(F)(F)F)cc2F)CC1 (stereo not shown) [Example 93, N-{4-[4-(Ethylcarbamoyl-phenyl-methyl)-piperazin-1-yl]-3-fluoro-phenyl}-3,3,3-trifluoro-2-pyrrolidin-2-ylmethyl-propionamide]
10 | CCNC(=O)C(c1ccccc1)N1CCN(c2ccc(NC(=O)C(CC3CCCCN3)C(F)(F)F)cc2F)CC1 (stereo not shown) [Example 94, N-{4-[4-(Ethylcarbamoyl-phenyl-methyl)-piperazin-1-yl]-3-fluoro-phenyl}-3,3,3-trifluoro-2-piperidin-2-ylmethyl-propionamide]
10 | CCNC(=O)C(c1ccccc1)N1CCN(c2ccc(NC(=O)CN3CCN(C(C)C)CC3)cc2F)CC1 (stereo not shown) [Example 95, N-Ethyl-2-(4-{2-fluoro-4-[2-(4-isopropyl-piperazin-1-yl)-acetylamino]-phenyl}-piperazin-1-yl)-2-phenyl-acetamide]
9 | CCNC(=O)C(c1ccccc1)N1CCN(c2ccc(NC(=O)C3CCN3C3CCCCC3)cc2F)CC1 (stereo not shown) [Example 96, 1-Cyclohexyl-azetidine-2-carboxylic acid {4-[4-(ethylcarbamoyl-phenyl-methyl)-piperazin-1-yl]-3-fluoro-phenyl}-amide]
1.1 | CCNC(=O)C(c1ccccc1)N1CCN(c2ccc(NC(=O)/C=C\c3ccccc3OC)cc2F)CC1 (stereo not shown) [Example 97, (Z)—N-{4-[4-(Ethylcarbamoyl-phenyl-methyl)-piperazin-1-yl]-3-fluoro-phenyl}-3-(2-methoxy-phenyl)-acryl amide]

IC50 [µM] | Structure (SMILES)
12 | COC(=O)C(c1ccccc1)N1CCN(c2ccc(NC(=O)c3cccnc3)cc2)CC1 (stereo not shown) [Example 98, Phenyl-(4-{4-[(pyridine-3-carbonyl)-amino]-phenyl}-piperazin-1-yl)-acetic acid methyl ester]
0.25 | COC(=O)C(c1ccccc1)N1CCN(c2ccc(NC(=O)c3ccccc3I)cc2F)CC1 (stereo not shown) [Example 99, {4-[2-Fluoro-4-(2-iodo-benzoylamino)-phenyl]-piperazin-1-yl}-phenyl-acetic acid methyl ester]
0.89 | CCNC(=O)C(c1ccccc1)N1CCN(c2ccc(NC(=O)c3cccnc3Br)cc2F)CC1 (stereo not shown) [Example 100, 2-Bromo-N-{4-[4-(ethylcarbamoyl-phenyl-methyl)-piperazin-1-yl]-3-fluoro-phenyl}-nicotinamide]
20 | COC(=O)C(c1ccccc1)N1CCN(c2ccc(NC(=O)c3ccco3)cc2)CC1 (stereo not shown) [Example 101, (4-{4-[(Furan-2-carbonyl)-amino]-phenyl}-piperazin-1-yl)-phenyl-acetic acid methyl ester]
20 | COC(=O)C(c1ccccc1)N1CCN(c2ccc(NC(=O)c3ccoc3)cc2)CC1 (stereo not shown) [Example 102, (4-{4-[(Furan-3-carbonyl)-amino]-phenyl}-piperazin-1-yl)-phenyl-acetic acid methyl ester]
2.5 | COC(=O)C(c1ccccc1)N1CCN(c2ccc(NC(=O)c3ccsc3)cc2)CC1 (stereo not shown) [Example 103, Phenyl-(4-{4-[(thiophene-3-carbonyl)-amino]-phenyl}-piperazin-1-yl)-acetic acid methyl ester]
7 | COC(=O)C(c1ccccc1)N1CCN(c2ccc(NC(=O)c3ccc[nH]3)cc2)CC1 (stereo not shown) [Example 104, Phenyl-(4-{4-[(1H-pyrrole-2-carbonyl)-amino]-phenyl}-piperazin-1-yl)-acetic acid methyl ester]
12 | COC(=O)C(c1ccccc1)N1CCN(c2ccc(NC(=O)c3ccccn3)cc2)CC1 (stereo not shown) [Example 106, Phenyl-(4-{4-[(pyridine-2-carbonyl)-amino]-phenyl}-piperazin-1-yl)-acetic acid methyl ester]
26 | COC(=O)C(c1ccccc1)N1CCN(c2ccc(NC(=O)c3cncnc3)cc2)CC1 (stereo not shown) [Example 108, Phenyl-(4-{4-[(pyrimidine-5-carbonyl)-amino]-phenyl}-piperazin-1-yl)-acetic acid methyl ester]
6.1 | COC(=O)C(c1ccccc1)N1CCN(c2ccc(NC(=O)CC(C)C)cc2)CC1 (stereo not shown) [Example 109, {4-[4-(3-Methyl-butyrylamino)-phenyl]-piperazin-1-yl}-phenyl-acetic acid methyl ester]
2.4 | COC(=O)C(c1ccccc1)N1CCN(c2ccc(NC(=O)c3ccccc3Br)cc2)CC1 (stereo not shown) [Example 110, {4-[4-(2-Bromo-benzoylamino)-phenyl]-piperazin-1-yl}-phenyl-acetic acid methyl ester]
0.34 | CCN(CC)C(=O)C(c1ccccc1)N1CCN(c2ccc(NC(=O)c3ccccc3Br)cc2F)CC1 (stereo not shown) [Example 111, 2-Bromo-N-{4-[4-(diethylcarbamoyl-phenyl-methyl)-piperazin-1-yl]-3-fluoro-phenyl}-benzamide]
0.45 | CCC(CC)C(=O)N(C)c1ccc(N2CCN(C(C(=O)N(CC)CC)c3ccccc3)CC2)c(F)c1 (stereo not shown) [Example 112, N-{4-[4-(Diethylcarbamoyl-phenyl-methyl)-piperazin-1-yl]-3-fluoro-phenyl}-2-ethyl-N-methyl-butyramide]
5.75 | CCNC(=O)C(c1ccccc1)N1CCN(c2ccc(C(=O)NC(CC)CC)cc2F)CC1 (stereo not shown) [Example 113, 4-[4-(Ethylcarbamoyl-phenyl-methyl)-piperazin-1-yl]-N-(1-ethyl-propyl)-3-fluoro-benzamide]
10 | COC(=O)C(c1ccccc1)N1CCN(c2ccc(C(=O)Nc3ccccc3)cc2)CC1 (stereo not shown) [Example 114, Phenyl-[4-(4-phenylcarbamoyl-phenyl)-piperazin-1-yl]-acetic acid methyl ester]
3.2 | CCC(CC)NC(=O)c1ccc(N2CCN(C(C(=O)OC)c3ccccc3)CC2)c(F)c1 (stereo not shown) [Example 115, {4-[4-(1-Ethyl-propylcarbamoyl)-2-fluoro-phenyl]-piperazin-1-yl}-phenyl-acetic acid methyl ester]
10 | CCC(CC)NC(=O)c1ccc(N2CCN(C(C(=O)OC)c3ccccc3)CC2)cc1 (stereo not shown) [Example 116, {4-[4-(1-Ethyl-propylcarbamoyl)-phenyl]-piperazin-1-yl}-phenyl-acetic acid methyl ester]
